# Reference: paper PMC8597734 (Antimicrobial Agents and Chemotherapy, 2021)
# Like-named read-outs stand apart in the source and are kept apart here.
# Experiments:
# [1] = tested on: M. abscessus subsp. abscessus K21; assay: microbe, parasite or virus in culture; type: cell-based, Mycobacterium abscessus; conditions: Mycobacteroides abscessus, 72 h
# [2] = tested on: M. abscessus subsp. abscessus M337; assay: microbe, parasite or virus in culture; type: cell-based, Mycobacterium abscessus; conditions: Mycobacteroides abscessus, 72 h
# [3] = tested on: M. abscessus subsp. massiliense M111; assay: microbe, parasite or virus in culture; type: cell-based, Mycobacterium abscessus; conditions: Mycobacteroides abscessus, 72 h
# [4] = tested on: M. abscessus Bamboo RM3 (GyrA D91N); assay: microbe, parasite or virus in culture; type: cell-based, Mycobacterium abscessus
# Tolerability in mice = type: in vivo, mouse; conditions: tolerated at doses up to
# [5] = tested on: M. abscessus subsp. abscessus M422; assay: microbe, parasite or virus in culture; type: cell-based, Mycobacterium abscessus; conditions: Mycobacteroides abscessus, 72 h
# [6] = Stability in microsomes (intrinsic clearance); type: in vitro ADME, mouse
# Experimental: (§1) Intrinsic clearance (CLi) values were determined in mouse and human liver microsomes. Test compounds (final concentration 0.5 μM) were incubated at 37°C for 30 min in 50 mM potassium phosphate buffer (pH 7.4) containing 0.5 mg microsomal protein/ml. The reaction was started by addition of cofactor NADPH. At 10 different time points (from zero to 30 min) an aliquot (90 μl) was taken, quenched with acetonitrile-methanol containing an appropriate internal standard, centrifuged and analyzed by LC-MS/MS. The intrinsic clearance (CLi) was determined using the following equation: CLi=k*(ml of incubation/mg microsomal protein)*(mg microsomal protein/g liver)
# (§2) Where k is the turn-over rate constant of the ln (% remaining compound) versus time regression and mg microsomal protein/g liver is 52.5 for both mouse and human.
# M. abscessus Bamboo [7] = assay: MIC and MBC determination in culture tubes (planktonic); type: cell-based, Mycobacterium abscessus; conditions: Mycobacteroides abscessus
# [8] = tested on: M. abscessus subsp. abscessus ATCC 19977; assay: microbe, parasite or virus in culture; type: cell-based, Mycobacterium abscessus; conditions: Mycobacteroides abscessus
# M. abscessus Bamboo [9] = assay: microbe, parasite or virus in culture; type: cell-based, Mycobacterium abscessus; conditions: Mycobacteroides abscessus, 72 h
# [10] = AMP (artificial membrane permeability) assay; type: in vitro ADME; conditions: PAMPA, pH 7.4
# Experimental: An 8% L-a-phosphatidylcholine (EPC) in 1% cholesterol decane solution and a 1.8% EPC in cholesterol decane solution were prepared. The lipid solution was aliquoted into 4 ml capped vials, sealed with parafilm and stored in −20°C freezer. The lipid solution was then transferred from 4 ml vial into a 96-well half area plate (130 μl/well) for daily assay usage. An additional 50 mM phosphate buffer with 0.5% encapsin, pH at 7.4 was prepared. The assay was run by the Biomek FX and Biomek software. The assay procedure is written under the Biomek software. For one batch assay, it can test two 96-well sample plates with at least one standard on each sample plate. The total assay time was about 4 h. 3.5 μl of lipid solution were added to the filler plate, shaken for 12 s, and 250 μl of buffer were added to donor side and 100 μl to the receiver side. The assay plate was shaken for 45 min before adding the compounds. The test compounds (2.5 μl) were added to the donor side. The assay was run as replicates: Assay plates 1 and 2 tested the sample plate 1; assay plates 3 and 4 tested the sample plate 2. The assay plates were then incubated and shaken for 3 h at room temperature. The assay samples were transferred to the HPLC analysis plates and 100 μl of receiver solution were aspirated and transferred to the receiver for analysis. […] Compound concentration was measured by HPLC at different time points.
# [11] = tested on: M. abscessus subsp. bolletii M506; assay: microbe, parasite or virus in culture; type: cell-based, Mycobacterium abscessus; conditions: Mycobacteroides abscessus, 72 h
# [12] = Stability in microsomes (intrinsic clearance); type: in vitro ADME, human
# Experimental: as §1, §2
# [13] = tested on: M. abscessus subsp. bolletii M232; assay: microbe, parasite or virus in culture; type: cell-based, Mycobacterium abscessus; conditions: Mycobacteroides abscessus, 72 h
# [14] = tested on: M. abscessus ATCC 19977 MXF_R1 (GyrA D96Y); assay: microbe, parasite or virus in culture; type: cell-based, Mycobacterium abscessus; conditions: Mycobacteroides abscessus, ATCC19977
# ChromlogD assay = type: physicochemical; conditions: reversed phase HPLC column (Gemini NX C18)
# Experimental: The Chromatographic Hydrophobicity Index (CHI) values are measured using reversed phase HPLC column (50 × 2 mm […] Gemini NX C18, Phenomenex, UK) with fast acetonitrile gradient at starting mobile phase of pHs 2, 7.4 and 10.5. CHI values are derived directly from the gradient retention times by using a calibration line obtained for standard compounds. The CHI value approximates to the volume % organic concentration when the compound elutes. CHI is linearly transformed into ChromlogD by least-square fitting of experimental CHI values to calculated ClogP values for over 20K research compounds using the following formula: ChromlogD = 0.0857CHI-2.00. The average error of the assay is ±3 CHI unit or ±0.25 ChromlogD.
smiles,measurement,setting,value
COc1cnc2ccc(=O)n(CCN3CCC(NCc4cnc(CO)c(Cl)c4)CC3)c2c1 [EC/11716],MIC,[1],3 µM
same,MIC,[2],2.4 µM
same,MIC,[3],4.9 µM
same,MIC,[4],>100 µM
same,MIC,[4]; Mycobacteroides abscessus,> 100 µM
same,tolerated dose,Tolerability in mice,up to 550 mg/kg
same,MIC,[5],1.8 µM
same,Mouse In vitro CLint,"[6]; mouse hepatic microsomes, free base form",1.6 ml/min/g tissue
same,mouse microsomal clearance,[6]; mouse microsomes,1.6 ml/min/g protein
same,MBC,"M. abscessus Bamboo [7]; 0 h, 10-fold reduction in CFU/ml vs day 0",3.1 µM
same,MIC,"M. abscessus Bamboo [7]; 48 h, day 2",1.5 µM
same,MIC,[8]; ATCC19977,1.9 µM
same,MIC,"[8]; ATCC19977, 72 h",1.8 µM
same,MIC,M. abscessus Bamboo [9],2.5 µM
same,Papp at 3 h,[10],16 ×10⁻⁶ cm/s
same,MIC,[11],5.2 µM
same,Human In vitro CLint,"[12]; human hepatic microsomes, free base form",< 0.3 ml/min/g tissue
same,Human microsomal clearance,[12]; human microsomes,< 0.3 ml/min/g protein
same,MIC,[13],2.5 µM
same,MIC,[14],≤ 10 µM
same,chromatographic logD,"ChromlogD assay; pH 7.4, read-out: ChromLogD pH 7.4",1.73
same,chromatographic logD,ChromlogD assay; read-out: LogD,1.74
